How the values were obtained:
Assay type in all cases: physicochemical
[1] = UV-vis titration with europium chloride for extinction coefficients
Protocol: In order to determine accurate extinction coefficients for 16 and 16·Eu, titration experiments using europium chloride as the titrant were performed. Europium chloride hexahydrate (13.22 mg, 0.03608 mmol) was dissolved into 5 mM citrate buffer (pH=4) using a 100 mL volumetric flask to give a 0.3608 mM europium chloride solution, which was then titrated into a 0.5 mL solution of 16 in TBS buffer (Tris-buffered saline, 50 mM Tris, 150 mM NaCl, pH=7.6) using 5 μL aliquots. The UV-vis spectra were adjusted for the increase in solvent volume due to each injection. The results of the UV-vis titration are plotted in FIG. 3.
The volume of europium chloride corresponds to 16.70 nmol of europium, meaning the starting concentration of ligand 16 was 33.40 μM. […] These absorbance and concentration values yield extinction coefficients of 13,600 M^−1 cm^−1 and 14,300 M^−1 cm^−1 for the ligand 16 and the complex 16·Eu respectively.
In order to determine accurate extinction coefficients for 43 and 43 Eu, titration experiments using europium chloride as the titrant were performed. Europium chloride hexahydrate (47.58 mg, 0.1299 mmol) was dissolved into 50 mM citrate buffer (pH=4) using a 10 mL volumetric flask to give a 12.99 mM europium chloride solution, which was then transferred to a 100 mL volumetric flask and diluted 1:10 with water. The resulting 1.299 mM europium chloride solution (in 5 mM citrate buffer) was then titrated into a 1 mL solution of 43 in TBS buffer using 5 μL aliquots. The UV-vis spectra were adjusted for the increase in solvent volume due to each injection. The results of the UV-vis titration are plotted in FIG. 4.
The volume of europium chloride corresponds to 47.46 nmol of europium, meaning the starting concentration of ligand 43 was 47.46 μM. […] These absorbance and concentration values yield extinction coefficients of 13,000 M^−1 cm^−1 and 12,800 M^−1 cm^−1 for the ligand and complex respectively.

[2] = Luminescence titration of ligand 43 with europium chloride; details: 383 nm (ligand), 357 nm (complex)
Protocol: Titration of ligand 43 was also performed by luminescence (FIG. 5), monitoring the europium signal at 612 nm upon photoexcitation of the solution at 340 nm. The ligand solution used for the UV-vis titration of 43 mentioned above was first diluted 1:10 in TBS buffer. Similarly, the 1.299 mM stock europium solution was separately diluted 1:10 with water. […] The 32.99 μL equivalence point gives extinction coefficients of 14,400 M^−1 cm^−1 at 383 nm and 14,200 M^−1 cm^−1 at 357 nm for 43 and 43 Eu respectively. Averaging the values from both UV-vis and luminescence titration experiments of 43 yields extinction coefficients of 13,700 M^−1 cm^−1 at 383 nm and 13,500 M^−1 cm^−1 at 357 nm for 43 and 43 Eu respectively.

[3] = Photophysical characterization of Eu complexes (UV-vis, luminescence, quantum yield, lifetime); details: TBS buffer, pH 7.6
Protocol: The europium complexes of ligands 16, 29, 33, 40, and 43 were prepared by separately dissolving each ligand (2 mg) into methanol (200 μL). Excess europium chloride hexahydrate (˜5 equivalents) was dissolved in methanol (200 μL) and the full volume was added to each of the ligand solutions. The solvent was removed, and the residue was dissolved into DMF (50 μL). The europium complexes were then purified by semi-prep HPLC on an Agilent 1260 Infinity instrument using an Eclipse XDB-C18 column (5 μm, 9.4×250 mm). The mobile phase was 10 to 30% acetonitrile in water containing 0.1% trifluoroacetic acid. The volatiles were removed from the HPLC eluents under vacuum, and the residues were separately dissolved into methanol (500 μL) to give methanolic stock solutions of each europium complex with greater than 98% purity. A few drops of these methanolic solutions were evaporated to dryness, and then the residue was dissolved into TBS buffer at a concentration of ca. 3 μM to make aqueous stock solutions (20 mL) with an absorbance of 0.05 (1 cm path length) at 365 nm. […] Quinine sulfate dissolved in 0.05 M sulfuric acid was similarly diluted to a final absorbance of 0.05 at 365 nm, and this solution was similarly (1/6, 2/6, 3/6, 4/6, and 5/6) diluted to afford six quinine sulfate reference samples of evenly spaced concentration. […] By measuring the absorbance and luminescence of these dilute solutions, the quantum yields of the new Eu complexes were determined. A 5 cm path-length quartz cell was used to measure the absorbance of these dilute solutions in order to improve the UV-vis signal-to-noise. Steady state photoluminescence measurements were collected in a 1 cm fluorescence cuvette at 365 nm excitation wavelength, 1 nm resolution, 10 nm excitation slit width, 1 nm emission slit width, and 0.2 sec integration time on an instrument that has been described elsewhere (D'Aleo, A.; Moore, E. G.; Szigethy, G.; Xu, J.; Raymond, K. N. Inorg. Chem. 2009, 48, 9316·). […]

With `NCCOCCNC(=O)C1CCCN(C(=O)c2cccc(=O)n2O)CCCNC(=O)c2ccc(n(O)c2=O)C(=O)N[C@@H]2COC[C@@H]2NC(=O)c2ccc(c(=O)n2O)C(=O)NCCCN1C(=O)c1cccc(=O)n1O` (some centres unmarked) [Compound 43] the lambda max ([1]; UV-vis titration, TBS buffer) was 383 nm, the extinction coefficient ([1]; UV-vis titration, at lambda max) was 13,000 M^−1 cm^−1 and the “ε at λmax” value ([1]; measured by europium titration, TBS buffer) was 13,700 M^−1cm^−1. For the same compound, the “extinction coefficient, average of UV-vis and luminescence titrations” value [2] was 13,700 M^−1 cm^−1, the extinction coefficient ([2]; luminescence titration) was 14,400 M^−1 cm^−1 and the “ε260/ε at λmax” value [3] was 1.96. For the same compound, the “ε280/ε at λmax” value [3] was 1.27 and the λmax [3] was 383 nm.

Source: patent US12440584B2, “Macrocyclic ligands with pendant chelating moieties and complexes thereof” (LUMIPHORE, INC., priority 2018, dated 2025)
